Assay: xn = mol fraction of the nth substance listed
Conditions: Liquid, Vibrating tube method

c1ccsc1 [thiophene] + O=C=O
Conditions | mass density [kg/m3]
332.85 K, 13009 kPa, x2 = 0.199 | 1012.87
332.85 K, 13971 kPa, x2 = 0 | 1030.09
332.85 K, 14005 kPa, x2 = 0.199 | 1014.1
332.85 K, 15006 kPa, x2 = 0 | 1031.04
332.85 K, 15042 kPa, x2 = 0.199 | 1015.31
332.85 K, 15990 kPa, x2 = 0 | 1032.01
332.85 K, 16037 kPa, x2 = 0.199 | 1016.53
332.85 K, 17034 kPa, x2 = 0.199 | 1017.71
332.85 K, 17050 kPa, x2 = 0 | 1033.03
332.85 K, 17976 kPa, x2 = 0 | 1033.88
332.85 K, 18013 kPa, x2 = 0.199 | 1018.85
332.85 K, 19004 kPa, x2 = 0.199 | 1019.98
332.85 K, 19018 kPa, x2 = 0 | 1034.92
332.85 K, 20016 kPa, x2 = 0.199 | 1021.13
332.93 K, 10438 kPa, x2 = 0.9217 | 603.48
332.93 K, 11001 kPa, x2 = 0.9217 | 635.42
332.93 K, 12001 kPa, x2 = 0.9217 | 673.08
332.93 K, 13005 kPa, x2 = 0.9217 | 700.08
332.93 K, 13949 kPa, x2 = 0.9217 | 720.24
332.93 K, 15012 kPa, x2 = 0.9217 | 738.73
332.93 K, 16019 kPa, x2 = 0.9217 | 754.17
332.93 K, 17014 kPa, x2 = 0.9217 | 767.1
332.93 K, 18009 kPa, x2 = 0.9217 | 778.74
332.93 K, 18964 kPa, x2 = 0.9217 | 789.26
332.93 K, 20027 kPa, x2 = 0.9217 | 798.89
332.93 K, 21018 kPa, x2 = 0.9217 | 807.65
332.93 K, 22031 kPa, x2 = 0.9217 | 815.99
332.93 K, 23019 kPa, x2 = 0.9217 | 823.51
332.93 K, 23954 kPa, x2 = 0.9217 | 830.07
332.93 K, 25005 kPa, x2 = 0.9217 | 836.64
332.96 K, 6987 kPa, x2 = 0.3818 | 977.03
332.96 K, 8041 kPa, x2 = 0.3818 | 979.02
332.96 K, 9012 kPa, x2 = 0.3818 | 980.85
332.96 K, 10018 kPa, x2 = 0.3818 | 982.65
332.96 K, 11007 kPa, x2 = 0.3818 | 984.44
332.96 K, 12018 kPa, x2 = 0.3818 | 986.2
332.96 K, 13030 kPa, x2 = 0.3818 | 987.96
332.96 K, 13998 kPa, x2 = 0.3818 | 989.61
332.96 K, 14969 kPa, x2 = 0.3818 | 991.25
332.96 K, 16045 kPa, x2 = 0.3818 | 993.04
332.96 K, 17024 kPa, x2 = 0.3818 | 994.61
332.96 K, 18020 kPa, x2 = 0.3818 | 996.22
332.96 K, 19050 kPa, x2 = 0.3818 | 997.85
333.04 K, 9091 kPa, x2 = 0.6996 | 929.67
333.04 K, 10017 kPa, x2 = 0.6996 | 932.84
333.04 K, 11036 kPa, x2 = 0.6996 | 936.19
333.04 K, 11989 kPa, x2 = 0.6996 | 939.22
333.04 K, 13024 kPa, x2 = 0.6996 | 942.4
333.04 K, 14004 kPa, x2 = 0.6996 | 945.28
333.04 K, 14904 kPa, x2 = 0.6996 | 947.84
333.04 K, 16043 kPa, x2 = 0.6996 | 951.03
333.04 K, 17013 kPa, x2 = 0.6996 | 953.62
333.04 K, 18048 kPa, x2 = 0.6996 | 956.36
333.04 K, 19011 kPa, x2 = 0.6996 | 958.88
333.15 K, 101 kPa, x2 = 0 | 1014.58
342.66 K, 5097 kPa, x2 = 0.199 | 988.63
342.66 K, 6031 kPa, x2 = 0.199 | 989.99
342.66 K, 7084 kPa, x2 = 0.199 | 991.48
342.66 K, 8010 kPa, x2 = 0.199 | 992.78
342.66 K, 9020 kPa, x2 = 0.199 | 994.19
342.66 K, 10077 kPa, x2 = 0.199 | 995.61
342.66 K, 11049 kPa, x2 = 0.199 | 996.93
342.66 K, 11932 kPa, x2 = 0.199 | 998.15
342.66 K, 13009 kPa, x2 = 0.199 | 999.54
342.66 K, 13997 kPa, x2 = 0.199 | 1000.84
342.66 K, 14996 kPa, x2 = 0.199 | 1002.14
342.66 K, 16043 kPa, x2 = 0.199 | 1003.48
342.66 K, 17018 kPa, x2 = 0.199 | 1004.66
342.66 K, 18018 kPa, x2 = 0.199 | 1005.93
342.66 K, 19016 kPa, x2 = 0.199 | 1007.17
342.66 K, 20032 kPa, x2 = 0.199 | 1008.42
342.69 K, 9071 kPa, x2 = 0.5661 | 923.94
342.69 K, 10000 kPa, x2 = 0.5661 | 926.85
342.69 K, 11013 kPa, x2 = 0.5661 | 929.94
342.69 K, 11994 kPa, x2 = 0.5661 | 932.85
342.69 K, 13024 kPa, x2 = 0.5661 | 935.81
342.69 K, 13996 kPa, x2 = 0.5661 | 938.48
342.69 K, 15008 kPa, x2 = 0.5661 | 941.2
342.69 K, 16016 kPa, x2 = 0.5661 | 943.82
342.69 K, 17021 kPa, x2 = 0.5661 | 946.37
342.69 K, 18030 kPa, x2 = 0.5661 | 948.87
342.69 K, 19004 kPa, x2 = 0.5661 | 951.23
342.77 K, 1039 kPa, x2 = 0 | 1004.75
342.77 K, 2072 kPa, x2 = 0 | 1005.93
342.77 K, 3033 kPa, x2 = 0 | 1007.02
342.77 K, 4023 kPa, x2 = 0 | 1008.17
342.77 K, 5027 kPa, x2 = 0 | 1009.26
342.77 K, 6033 kPa, x2 = 0 | 1010.36
342.77 K, 7008 kPa, x2 = 0 | 1011.44
342.77 K, 7998 kPa, x2 = 0 | 1012.5
342.77 K, 9005 kPa, x2 = 0 | 1013.59
342.77 K, 10000 kPa, x2 = 0 | 1014.65
342.77 K, 10963 kPa, x2 = 0 | 1015.65
342.77 K, 12009 kPa, x2 = 0 | 1016.72
342.77 K, 13023 kPa, x2 = 0 | 1017.82
342.77 K, 13928 kPa, x2 = 0 | 1018.74
342.77 K, 15009 kPa, x2 = 0 | 1019.83
342.77 K, 15998 kPa, x2 = 0 | 1020.79
342.77 K, 17025 kPa, x2 = 0 | 1021.8
342.77 K, 17995 kPa, x2 = 0 | 1022.8
342.77 K, 19013 kPa, x2 = 0 | 1023.79
342.77 K, 20001 kPa, x2 = 0 | 1024.73
342.91 K, 7074 kPa, x2 = 0.3818 | 959.84
342.91 K, 7993 kPa, x2 = 0.3818 | 961.78
342.91 K, 8982 kPa, x2 = 0.3818 | 963.81
342.91 K, 10027 kPa, x2 = 0.3818 | 965.93
